# “And” between values parts separate entries of the source, which are not always exact repeats. Equal entries are not always repeated. “Also recorded” adds a separate entry of the source.
# What was measured:
# Format in all cases: in vivo, human
# [1] = tested on: proliferating cells (Ki67+) in endometriotic implants; test: Proliferative activity by Ki-67 immunocytochemistry; conditions: after versus before treatment, FIG. 3
# Method: Immunocytochemistry with Ki-67 (monoclonal IgG1 DAKO Corp., Denmark) antibody was performed in order to evaluate the proliferative activity of the samples, by methods well known in the art. […] The images obtained show proliferating cells as positive for Ki67 with nuclear (brown/black) staining. At least 10 random 40× microscopic fields per sample were photographed and analysed. Areas of interest corresponding to proliferating cells (Ki67+) were segmented and marked, and counted.
# [2] = tested on: vessels in endometriotic lesions; test: Vascularisation of biopsy samples by CD31 immunofluorescence/immunohistochemistry; conditions: after versus before treatment, FIG. 2
# Method: The vascularisation effects of the quinagolide were assessed by immunofluorescence/immunohistochemistry on the biopsy samples taken before and after treatment, by methods well known in the art. The CD31(+) signal was used which specifically stains for vessels; vessels are stained brown. In order to quantify vascularisation at least 10 random 40× microscopic fields per sample were photographed and analysed using Image pro-plus software. Areas of interest corresponding to vessels (brown stain) were segmented and marked; and those corresponding to non vascularised areas were segmented and marked differently. The marked image was then analysed to show the % vascularised area per tissue, and the results for samples before and after treatment are shown in FIG. 2.
# PRL = test: Serum PRL level before and after treatment; conditions: per patient; after oral 25/50/75 micrograms/day titrated treatment, 18-20 weeks
# Method: (§1) 1] Laparoscopy 1: an endometriotic implant was biopsied, and a second endometriotic implant, similar to the biopsied one, was marked with a non-absorbable suture. Pictures were taken before and after surgery from all individuals. The marked implant was photographed (e.g. FIG. 1A). The biopsy sample was analysed as described below. An assessment of ASRM stage pre-treatment was taken. The PRL level (μg/mL) and Ca125 level (IU/ml) for each patient was measured pre-treatment, by known methods. 3] Laparoscopy 2: in which the second (marked) implant was biopsied. The marked implant was photographed (e.g. FIG. 1B). The biopsy sample was analysed as described below. A second assessment of the ASRM stage post-treatment was completed. The PRL level (μg/mL) and Ca125 level (IU/ml) for each patient was measured post-treatment, by known methods. During the four month treatment period, i.e. between L1 and L2, patients were monthly monitored in our clinic to assess severity of common side effects of Drd2-A like dizziness, nausea and vomiting. During these visits, blood was drawn for subsequent EIA measurement of serum PRL, a marker of the level of Drd2 activity, to monitor compliance with taking the medication.
# [3] = tested on: dopamine receptor 2 (DAR2); test: DAR2 expression in endometriotic lesions by staining; conditions: after versus before treatment, FIG. 5
# Method: DAR2 expression in human endometriotic lesions was measured by staining, by methods well known in the art (FIG. 5, bottom).
# [4] = tested on: peritoneal red endometriotic lesions; test: Macroscopic analysis: appearance and surface area of index endometriotic lesions at L1 and L2
# Method: Operative L1 and L2 were performed by two experienced surgeons using modern laparoscopic equipment and the surgeries were recorded by video. The severity of the disease was established according to the Revised American Society for Reproductive Medicine classification of endometriosis: […] (16). During L1, 4-6 index peritoneal red lesions were identified before surgical manipulation started. Half of the index lesions were surgically removed and stored as described below. The remaining half index lesions were left behind and marked with an unabsorbable silk knot sature approximately 1 cm away from them. All non-index lesions were subsequently removed and discarded. […] Thus the study continued with 10 patients after L1. One patient discontinued treatment. At the end of treatment, the L2 was performed and video recorded. During surgery the silk knot was identified in all patients, the suture removed and the area containing the index lesion left behind surgically excised. If significant adhesion formation was detected, lysis of adhesion was performed. The index lesions removed at L1 and L2 were fixed in formalin (approximately 75% of each lesion tissue) for histological verification and descriptive analysis of endometriosis. Formalin fixed samples were also employed for immunohistochemical analysis and subsequent quantification of vascularisation, vessel immatureness, Drd2 expression, cell proliferation, VEGFR2 expression and VEGFR2 activation by techniques well known in the art. The remaining portion of each lesion tissue (25%) was homogenized in Trizol and cryopreserved at −80° C. for subsequent Superarray QF-PCR analysis. All laparoscopies were recorded with a Karl Storz (Germany) videocamera. […] Eligible frames were captured, copied to a PC computer and opened with ImagePro Plus Version 6.03 (Media Cybernetics, Silver Spring, Md., USA) software for image processing. The size of the black or grey cap served as a reference to measure the changes in surface induced by quinagolide at L2 over the lesions left behind during L1.
# Ca125 = Ca125 level before and after treatment; conditions: per patient; after oral 25/50/75 micrograms/day titrated treatment, 18-20 weeks
# Method: as §1, with “methods.” for “methods. During the four month treatment period, i.e. between L1 and L2, patients were monthly monitored in our clinic to assess severity of common side effects of Drd2-A like dizziness, nausea and vomiting. During these visits, blood was drawn for subsequent EIA measurement of serum PRL, a marker of the level of Drd2 activity, to monitor compliance with taking the medication.”
# endometriosis = test: ASRM classification of endometriosis before and after treatment (pilot study); conditions: per patient (9 women with hyperprolactinemia and endometriosis); oral 25 then 50 then 75 micrograms/day, total 18-20 weeks; stage IV most severe, stage I least severe
# Method: 1] Laparoscopy 1: an endometriotic implant was biopsied, and a second endometriotic implant, similar to the biopsied one, was marked with a non-absorbable suture. Pictures were taken before and after surgery from all individuals. The marked implant was photographed (e.g. FIG. 1A). The biopsy sample was analysed as described below. An assessment of ASRM stage pre-treatment was taken. The PRL level (μg/mL) and Ca125 level (IU/ml) for each patient was measured pre-treatment, by known methods.
# 3] Laparoscopy 2: in which the second (marked) implant was biopsied. The marked implant was photographed (e.g. FIG. 1B). The biopsy sample was analysed as described below. A second assessment of the ASRM stage post-treatment was completed. The PRL level (μg/mL) and Ca125 level (IU/ml) for each patient was measured post-treatment, by known methods.
# Operative L1 and L2 were performed by two experienced surgeons using modern laparoscopic equipment and the surgeries were recorded by video. The severity of the disease was established according to the Revised American Society for Reproductive Medicine classification of endometriosis: […] (16). During L1, 4-6 index peritoneal red lesions were identified before surgical manipulation started. Half of the index lesions were surgically removed and stored as described below. […]
# endometriotic lesions = test: Histological analysis and Superarray QF-PCR expression analysis of index lesions removed at L1 and L2
# Method: At the end of treatment, the L2 was performed and video recorded. During surgery the silk knot was identified in all patients, the suture removed and the area containing the index lesion left behind surgically excised. If significant adhesion formation was detected, lysis of adhesion was performed. The index lesions removed at L1 and L2 were fixed in formalin (approximately 75% of each lesion tissue) for histological verification and descriptive analysis of endometriosis. Formalin fixed samples were also employed for immunohistochemical analysis and subsequent quantification of vascularisation, vessel immatureness, Drd2 expression, cell proliferation, VEGFR2 expression and VEGFR2 activation by techniques well known in the art. The remaining portion of each lesion tissue (25%) was homogenized in Trizol and cryopreserved at −80° C. for subsequent Superarray QF-PCR analysis.
# [5] = L2 versus L1, results not shown
smiles,measurement,setting,value
"CCCN1C[C@H](NS(=O)(=O)N(CC)CC)C[C@H]2Cc3c(O)cccc3C[C@@H]21 [quinagolide, (3R,4aR,10aS)-3-(Diethylsulfamoylamino)-6-hydroxy-1-propyl-3,4,4a,5,10,10a-hexahydro-2H-benzo[g]quinoline]",Cell proliferation (Ki-67 positive cells per microscopic field),[1],trend towards reduced cell proliferation
same,"Vascularisation of the endometriotic sample (% vascularised area, CD31)",[2],significant decrease in vascularisation
same,PRL level after treatment,PRL,<0.6 μg/mL (2×) and 15.1 μg/mL and 14 μg/mL and 6.5 μg/mL and <0.1 μg/mL and 6.4 μg/mL and 1.1 μg/mL and 28.6 μg/mL
same,Expression of the dopamine receptor 2 (DAR2) in endometriotic lesions,[3],increases the expression
same,"Decrease of mean total surface area (size) of index lesions, L2 versus L1","[4]; 9 patients, after 18-20 weeks treatment",68%
same,Mean of the total surface area of index lesions measured during L2,"[4]; 9 patients, vanished lesions counted as 100% size reduction, L1 value 36.09±20.56 mm^2, p<0.05",11.57±12.54 mm^2
same,Lesions vanishing,[4]; after 18-20 weeks treatment,35%
same,Number of recovered index lesions showing reduction in size compared to L1,[4]; out of 15 lesions recovered at L2,13
same,Number of red index lesions vanished at L2,[4]; out of 23 red index lesions labelled at L1,8
same,Number of patients with all index endometriotic lesions absent during L2,[4]; out of the 9 patients,2
same,Number of patients with vanished lesions combined with persisting lesions decreased in size,[4]; out of the 9 patients,3
same,Ca125 level after treatment,Ca125,25.9 IU/ml and 15.5 IU/ml and 18 IU/ml and 21.1 IU/ml and 22 IU/ml and 24.1 IU/ml and 20.4 IU/ml and 29.9 IU/ml and 24.9 IU/ml
same,ASRM post treatment,endometriosis,Stage II; also recorded: Stage I; also recorded: Stage III
same,PAI-1 expression,endometriotic lesions; L2 lesion,down-regulated
same,Histological analysis of lesions,endometriotic lesions; L2 lesions,signs of tissue degeneration
same,Expression of Drd2 and antiangiogenic cytokine CXCL10,endometriotic lesions; [5],upreguilating
same,"Expression of VEGF/VEGFR2 and proangiogenic cytokines CCL2, RUNX1 and AGGF1",endometriotic lesions; [5],downregulated
